Read-outs that look alike come from different tables or passages of the source.
How the values were obtained:
[1] = biological target: T1, transglutaminase 2 (TGase 2) (Homo sapiens, UniProt P21980); test: TGase 2 transpeptidase fluorescence assay: incorporation of KXD into N,N-dimethylated-casein (Std and FPC formats); assay type: biochemical; settings: for TGase 2 inhibitory activity, SAR comment in words (relative to parent compound): qualitative comparison
T1 sequence (P21980 1-687): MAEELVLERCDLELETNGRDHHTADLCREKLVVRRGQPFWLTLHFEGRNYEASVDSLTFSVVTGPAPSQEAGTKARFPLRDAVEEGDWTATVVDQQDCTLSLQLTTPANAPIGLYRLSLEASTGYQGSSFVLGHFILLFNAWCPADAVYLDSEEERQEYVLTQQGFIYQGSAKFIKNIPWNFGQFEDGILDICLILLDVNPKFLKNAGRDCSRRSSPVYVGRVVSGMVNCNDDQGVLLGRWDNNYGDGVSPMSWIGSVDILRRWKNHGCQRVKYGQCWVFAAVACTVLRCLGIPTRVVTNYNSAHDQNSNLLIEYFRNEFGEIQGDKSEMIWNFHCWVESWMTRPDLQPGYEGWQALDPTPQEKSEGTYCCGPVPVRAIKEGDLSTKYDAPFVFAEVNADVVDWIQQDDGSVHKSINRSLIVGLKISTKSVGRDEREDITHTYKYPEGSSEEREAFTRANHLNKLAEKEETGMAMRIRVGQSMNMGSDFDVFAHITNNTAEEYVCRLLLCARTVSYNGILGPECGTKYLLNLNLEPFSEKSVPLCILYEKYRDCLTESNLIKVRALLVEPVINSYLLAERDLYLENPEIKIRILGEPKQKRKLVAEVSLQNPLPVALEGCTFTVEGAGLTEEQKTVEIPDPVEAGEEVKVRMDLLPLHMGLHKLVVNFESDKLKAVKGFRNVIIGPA
Description: Transpeptidase activity was monitored as the increase in fluorescence intensity (FI) that accompanies incorporation of the dansylated Lys derivative, α-N-Boc-Lys-CH2-CH2-dansyl (KXD), into the protein substrate, N,N-dimethylated-casein (NMC).
Therefore, a method was used in which full progress curves (FPC) were recorded for the TGase-catalyzed reaction of KXD with NMC in the presence of inhibitor (Table 1-4). Reactions were initiated by enzyme addition to a solution of substrate and inhibitor. […] From such progress curves, IC50 values were calculated using the following equation: IC50=[I]/{(vc/vss)−1}. Progress curves recorded at several inhibitor concentrations were used to determine FPC IC50 values (Table 1-4).

[2] = biological target: T1, transglutaminase 2 (TGase 2); test: as above; assay type: biochemical; settings: standard format (Std): reactions terminated after 60 min, FI recorded, four-parameter fit
[3] = full progress curves (FPC), IC50=[I]/{(vc/vss)−1}, from steady-state velocity, read-out: IC50 (μM, FPC)
[4] = summary of FPC values, read-out: FPC IC50 values

| SMILES | IC50 [1, 3] [µM] | IC50 [2] [µM] | also measured |
| --- | --- | --- | --- |
| NNC(=O)CSc1nc2ccc(-c3ccccc3)cc2c(=O)n1-c1cccc(F)c1 [986-04, [3-(3-Fluorophenyl)-4-oxo-6-phenyl-3,4-dihydroquinazolin-2-ylsulfanyl]acetic acid hydrazide] | 1.5 |  | TGase 2 inhibitory activity, SAR comment in words (relative to parent compound) [1]: Activity was partly restored |
| CN(CC(=O)NN)c1nc2scc(-c3ccccc3)c2c(=O)n1-c1ccccc1 [986-06, [Methyl-(4-oxo-3,5-diphenyl-3,4-dihydrothieno[2,3-d]pyrimidin-2-yl) -amino]acetic acid hydrazide] |  | > 20 |  |
| Cc1csc2nc(SCC(=O)NN)n(-c3ccc(F)cc3)c(=O)c12 [986-11, [3-(4-Fluorophenyl)-5-methyl-4-oxo-3,4-dihydrothieno[2,3-d]pyrimidin-2-ylsulfanyl]acetic acid hydrazide] |  | 6.3 |  |
| NNC(=O)CSc1nc2scc(-c3ccccc3)c2c(=O)n1C1CCCCC1 [986-17, (3-Cyclohexyl-4-oxo-5-phenyl-3,4-dihydrothieno[2,3-d]pyrimidin-2-ylsulfanyl)acetic acid hydrazide] |  | 2.6 |  |
| COc1ccccc1-c1csc2nc(SCC(=O)NN)n(-c3cccc(F)c3)c(=O)c12 [986-31, [3-(3-Fluorophenyl)-5-(2-methoxyphenyl)-4-oxo-3,4-dihydrothieno[2,3-d]pyrimidin-2-ylsulfanyl]acetic acid hydrazide] | 0.14 |  | IC50 [1, 4]: < 0.16 µM |
| COc1ccc(-c2csc3nc(SCC(=O)NN)n(-c4cccc(F)c4)c(=O)c23)cc1 [986-33, [3-(3-Fluorophenyl)-5-(4-methoxyphenyl)-4-oxo-3,4-dihydrothieno[2,3-d]pyrimidin-2-ylsulfanyl]acetic acid hydrazide] | 0.28 |  |  |
| CC(C)c1csc2nc(SCC(=O)NN)n(-c3cccc(F)c3)c(=O)c12 [986-36, [3-(3-Fluorophenyl)-5-isopropyl-4-oxo-3,4-dihydrothieno[2,3-d]pyrimidin-2-ylsulfanyl]acetic acid hydrazide] | 0.23 |  | TGase 2 inhibitory activity, SAR comment in words (relative to parent compound) [1]: no loss in activity |
| NNC(=O)CSc1nc2scc(-c3ccccc3F)c2c(=O)n1-c1cccc(F)c1 [986-37, [3-(3-Fluorophenyl)-5-(2-fluorophenyl)-4-oxo-3,4-dihydrothieno[2,3-d]pyrimidin-2-ylsulfanyl]acetic acid hydrazide] | 0.14 |  | IC50 [1, 4]: < 0.16 µM |
| NNC(=O)CSc1nc2scc(-c3cccc(F)c3)c2c(=O)n1-c1cccc(F)c1 [986-38, [3,5-Bis-(3-fluorophenyl)-4-oxo-3,4-dihydrothieno[2,3-d]pyrimidin-2-ylsulfanyl]acetic acid hydrazide] | 0.29 |  |  |
| NNC(=O)CSc1nc2sc(Cl)c(-c3ccccc3F)c2c(=O)n1-c1cccc(F)c1 [986-39, [6-Chloro-3-(3-fluorophenyl)-5-(2-fluorophenyl)-4-oxo-3,4-dihydrothieno[2,3-d]pyrimidin-2-ylsulfanyl]acetic acid hydrazide] | 0.13 |  | TGase 2 inhibitory activity, SAR comment in words (relative to parent compound) [1]: increased activity; IC50 [1, 4]: < 0.16 µM |
| Cc1sc2nc(SCC(=O)NN)n(-c3cccc(F)c3)c(=O)c2c1-c1ccccc1F [986-40, [3-(3-Fluorophenyl)-5-(2-fluorophenyl)-6-methyl-4-oxo-3,4-dihydrothieno[2,3-d]pyrimidin-2-ylsulfanyl]acetic acid hydrazide] | 0.15 |  | IC50 [1, 4]: < 0.16 µM |
| CC(C)c1sc2nc(SCC(=O)NN)n(-c3cccc(F)c3)c(=O)c2c1-c1ccccc1F [986-41, [3-(3-Fluorophenyl)-5-(2-fluorophenyl)-6-isopropyl-4-oxo-3,4-dihydrothieno[2,3-d]pyrimidin-2-ylsulfanyl]acetic acid hydrazide] | 0.9 |  | TGase 2 inhibitory activity, SAR comment in words (relative to parent compound) [1]: detrimental |
| NNC(=O)CSc1nc2sc3c(c2c(=O)n1-c1cccc(F)c1)CCCC3 [986-42, [3-(3-Fluorophenyl)-4-oxo-3,4,5,6,7,8-hexahydrobenzo[4,5]thieno[2,3-d]pyrimidin-2-ylsulfanyl]acetic acid hydrazide] | 0.45 |  |  |
| CC1CCCc2sc3nc(SCC(=O)NN)n(-c4cccc(F)c4)c(=O)c3c21 (stereo not shown) [986-43, [3-(3-Fluorophenyl)-5-methyl-4-oxo-3,4,5,6,7,8-hexahydrobenzo[4,5]thieno[2,3-d]pyrimidin-2-ylsulfanyl]acetic acid hydrazide] | 0.2 |  |  |
| CC(C)(C)OC(=O)N1CCc2c(sc3nc(SCC(=O)NN)n(-c4cccc(F)c4)c(=O)c23)C1 [986-46, 3-(3-Fluorophenyl)-2-hydrazinocarbonylmethylsulfanyl-4-oxo-3,5,6,8-tetrahydro-4H-9-thia-1,3,7-triazafluorene-7-carboxylic acid tert-butyl ester] | 1.1 |  |  |
| NNC(=O)CSc1nc2sc3c(c2c(=O)n1-c1cccc(F)c1)CCNC3 [986-47, [3-(3-Fluorophenyl)-4-oxo-3,4,5,6,7,8-hexahydro-9-thia-1,3,7-triazafluoren-2-ylsulfanyl]acetic acid hydrazide] | 7.1 |  |  |
| CN1CCc2c(sc3nc(SCC(=O)NN)n(-c4cccc(F)c4)c(=O)c23)C1 [986-48, [3-(3-Fluorophenyl)-7-methyl-4-oxo-3,4,5,6,7,8-hexahydro-9-thia-1,3,7-triazafluoren-2-ylsulfanyl]acetic acid hydrazide] | 0.53 |  |  |

Now from value to compound, other results behind:

| IC50 [1, 3] [µM] | IC50 [2] [µM] | SMILES | also measured |
| --- | --- | --- | --- |
| 3.7 |  | NNC(=O)CNc1nc2scc(-c3ccccc3)c2c(=O)n1-c1ccccc1 [986-05, (4-Oxo-3,5-diphenyl-3,4-dihydrothieno[2,3-d]pyrimidin-2-ylamino)acetic acid hydrazide] | TGase 2 inhibitory activity, SAR comment in words (relative to parent compound) [1]: decreased activity |
|  | 8.4 | Cn1c(SCC(=O)NN)nc2scc(-c3ccccc3)c2c1=O [986-10, (3-Methyl-4-oxo-5-phenyl-3,4-dihydrothieno[2,3-d]pyrimidin-2-ylsulfanyl)acetic acid hydrazide] |  |
|  | 2.3 | NNC(=O)CSc1nc2scc(-c3ccccc3)c2c(=O)n1Cc1ccccc1 [986-14, (3-Benzyl-4-oxo-5-phenyl-3,4-dihydrothieno[2,3-d]pyrimidin-2-ylsulfanyl)acetic acid hydrazide] |  |
|  | 2.1 | COc1ccc(-n2c(SCC(=O)NN)nc3scc(-c4ccccc4)c3c2=O)cc1 [986-15, [3-(4-Methoxyphenyl)-4-oxo-5-phenyl-3,4-dihydrothieno[2,3-d]pyrimidin-2-ylsulfanyl]acetic acid hydrazide] |  |
|  | 2 | COc1ccccc1-n1c(SCC(=O)NN)nc2scc(-c3ccccc3)c2c1=O [986-20, [3-(2-Methoxyphenyl)-4-oxo-5-phenyl-3,4-dihydrothieno[2,3-d]pyrimidin-2-ylsulfanyl]acetic acid hydrazide] |  |
|  | 1.8 | NNC(=O)CSc1nc2scc(-c3ccccc3)c2c(=O)n1-c1ccccc1Cl [986-23, [3-(2-Chlorophenyl)-4-oxo-5-phenyl-3,4-dihydrothieno[2,3-d]pyrimidin-2-ylsulfanyl]acetic acid hydrazide] |  |
|  | 1.5 | NNC(=O)CSc1nc2scc(-c3ccccc3)c2c(=O)n1-c1cccc(Cl)c1 [986-24, [3-(3-Chlorophenyl)-4-oxo-5-phenyl-3,4-dihydrothieno[2,3-d]pyrimidin-2-ylsulfanyl]acetic acid hydrazide] |  |
|  | 1.8 | NNC(=O)CSc1nc2scc(-c3ccccc3)c2c(=O)n1-c1ccc(Cl)cc1 [986-25, [3-(4-Chlorophenyl)-4-oxo-5-phenyl-3,4-dihydrothieno[2,3-d]pyrimidin-2-ylsulfanyl]acetic acid hydrazide] |  |

Reference: patent US20060183759A1, “Tissue transglutaminase inhibitors” (priority 2004, published 2006)
